This assay addresses T1, tissue-nonspecific alkaline phosphatase (TNAP) (Homo sapiens, UniProt P05186).
T1 construct: made in house; host or cells: COS-1 cells, transient expression; dialyzed serum-free conditioned medium
T1 sequence (P05186 18-502 limits assumed): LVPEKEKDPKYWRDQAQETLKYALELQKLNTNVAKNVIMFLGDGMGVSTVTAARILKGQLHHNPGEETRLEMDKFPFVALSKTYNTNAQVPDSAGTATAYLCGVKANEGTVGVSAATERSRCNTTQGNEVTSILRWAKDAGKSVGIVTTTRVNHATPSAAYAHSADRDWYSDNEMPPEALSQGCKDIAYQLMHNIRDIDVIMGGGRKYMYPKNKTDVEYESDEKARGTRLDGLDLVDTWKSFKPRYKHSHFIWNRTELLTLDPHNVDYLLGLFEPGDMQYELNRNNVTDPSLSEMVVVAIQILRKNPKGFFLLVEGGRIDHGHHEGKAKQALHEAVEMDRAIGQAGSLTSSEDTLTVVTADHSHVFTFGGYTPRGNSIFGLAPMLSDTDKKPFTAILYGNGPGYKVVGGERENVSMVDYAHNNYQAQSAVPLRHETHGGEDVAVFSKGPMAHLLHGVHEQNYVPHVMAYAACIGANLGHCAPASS
Briefly: TNAP inhibition screening assay (colorimetric pNPP / luminescence CDP-star), IC50. Type of assay: biochemical. The conditions noted are these: Tables A-H; tissue-nonspecific alkaline phosphatase inhibitors. Here is the method: Expression plasmids containing a secreted epitope-tagged TNAP, PLAP and IAP were transfected into COS-1 cells for transient expression using a standard electroporation method. Medium was replaced to Opti-MEM 24 hours later, and the serum free media containing secreted proteins were collected 60 hours after electroporation. Conditioned medium was dialyzed against TBS containing 1 mM MgCl2 ad 20 μM ZnCl2 (to remove phosphate) and filtrated with a 2 μm cellulose acetate filter.
A TNAP stock solution was diluted 120-fold and about 12 ul of diluted TNAP solution were dispensed into 96 well microtiter plates with half area bottom (Costar, Corning, N.Y.) by an auto dispenser (Matrix, Hudson, N.H.). A robotic liquid handler, Biomek™ FX (Beckman Coulter, Fullerton, Calif.) dispensed about 2.5 μl of each compound (dissolved in 10% DMSO) from the library plates. Plates were incubated at room temperature for at least one hour to allow TNAP to interact with each compound prior to addition of about 10.5 μl substrate solution (1.19 mM pNPP). After about 30 minutes of incubation, A405 nm was measured with a microtiter plate reader, Analyst™ HT (Molecular Devices, Sunnyvale, Calif.). Both the enzyme (TNAP) and substrate (pNPP) solution were made in diethanolamine (DEA) buffers; the final reaction contains 1M DEA-HCl buffer, pH about 9.8, containing about 1 mM MgCl2 and about 20 μM ZnCl2.
Compound aliquots (4 uL @ 100 uM in 10% DMSO) were added with about 8 uL of TNAP working solution, prepared by 800-fold dilution of TNAP in 2.5-fold assay buffer (250 mM DEA, pH 9.8, 2.5 mM MgCl2, 0.05 mM ZnCl2). CDP-star substrate solution (about 8 uL of 125 uM in water) was added to each well. […] Plates (white 384-well small volume Greiner 784075) were incubated at room temperature for about 0.5 hour and luminescence signal was measured using an EnVision plate reader (PerkinElmer).

One may read the IC50 as the concentration at which inhibition is half-maximal. Read a low IC50 as greater potency in that assay. As for `O=C(O)c1cc(-c2ccccc2Cl)n[nH]1` [Compound A1, 3-(2-chlorophenyl)-1H-pyrazole-5-carboxylic acid], the IC50 turned out to be 0.68 µM.

The compound `COC(=O)c1cc(-c2c[nH]c3ccccc23)[nH]n1` [Compound A2, methyl 3-(1H-indol-3-yl)-1H-pyrazole-5-carboxylate] displayed an IC50 of 0.81 µM.

Regarding `O=C(O)c1cc(-c2ccc(Cl)cc2)n[nH]1` [Compound A3, 3-(4-chlorophenyl)-1H-pyrazole-5-carboxylic acid], the IC50 stood at 0.95 µM.

Compound `COC(=O)c1cc(-c2ccccc2)n[nH]1` [Compound A4, methyl 3-phenyl-1H-pyrazole-5-carboxylate] had an IC50 of 0.97 µM.

Compound `Oc1cc(-c2cccc3ccccc23)n[nH]1` [Compound A5, 3-(napthalen-1-yl)-1H-pyrazol-5-ol] had a concentration for half-maximal inhibition (IC50) of 3.24 µM.

`Nc1[nH]nc(-c2ccc(Br)cc2)c1Cl` [Compound A6, 3-(4-bromophenyl)-4-chloro-1-H-pyrazol-5-amine] returned an IC50 of 6.51 µM.

On to `Cn1cccc1-c1cc(C(=O)O)[nH]n1` [Compound A7, 3-(1-methyl-1H-pyrrol-2-yl)-1H-pyrazole-5-carboxylate], for which the IC50 came to 10.2 µM.

As for `COC(=O)c1cc(-c2ccc(Br)cc2)n[nH]1` [Compound A8, methyl 3-(4-bromophenyl)-1H-pyrazole-5-carboxylate], the IC50 amounted to 0.31 µM.

`CCCCc1[nH]nc2c1C(=O)CC(C)(C)C2` [Compound B1, 3-butyl-6,6-dimethyl-6,7-dihydro-2H-indazol-4(5H)-one] gave a half-maximal inhibitory concentration (IC50) of 1.51 µM.

The compound `CC1(C)CC(=O)c2c(n[nH]c2-c2cccs2)C1` [Compound B2, 6,6-dimethyl-3-(thiophen-2-yl)-6,7-dihydro-2H-indazol-4(5H)-one] yielded an IC50 of 3.67 µM.

In turn, `CC1(C)CC(=O)c2c(n[nH]c2Cc2ccccc2)C1` [Compound B3, 3-benzyl-6,6-dimethyl-6,7-dihydro-2H-indazol-4(5H)-one] displayed an IC50 of 0.57 µM.

Turning to `Cc1cc(O)oc2nnc(-c3ccccc3)c1-2` [Compound B4, 4-methyl-3-phenylpyrano[2,3-c]pyrazol-6-ol], the IC50 amounted to 0.99 µM.

Compound `COc1ccc(-c2nnc3oc(O)cc(C)c2-3)cc1` [Compound B5, 3-(4-methoxyphenyl)-4-methylpyrano[2,3-c]pyrazol-6-ol] gave an IC50 of 1.35 µM.

In turn, `COCc1n[nH]c2c1C(c1cc(OC)c(O)c(OC)c1)C(C#N)=C(N)O2` (stereo not drawn) [Compound B6, 6-amino-4-(4-hydroxy-3,5-dimethoxyphenyl)-3-(methoxymethyl)-1,4-dihydropyrano[2,3-c]pyrazole-5-carbonitrile] yielded an IC50 of 5.25 µM.

As to `Cc1cc(NC(=O)COC(=O)c2[nH]nc3ccccc23)no1` [Compound B8, 2-(5-methylisoxazol-3-ylamino)-2-oxoethyl 2H-indazole-3-carboxylate], 9.43 µM corresponded to half-maximal inhibition (IC50).

Regarding `COc1ccc2c(c1)CCc1c-2n[nH]c1C(=O)O` [Compound B9, 7-methoxy-4,5-dihydro-2H-benzo [g]indazole-3-carboxylic acid], the midpoint of inhibition, the IC50, lay at 0.32 µM.

For the compound `O=C(O)c1[nH]nc2c1COc1ccccc1-2` [Compound B10, 2,4-dihydrochromeno[4,3-c]pyrazole-3-carboxylic acid], the IC50 was determined as 1.35 µM.

For the compound `c1ccc(-c2n[nH]c3c2CCC3)cc1` [Compound B11, 3-phenyl-1,4,5,6-tetrahydrocyclopenta[c]pyrazole], the IC50 amounted to 3.4 µM.

As to `Nc1nc(CSc2n[nH]c(-c3ccccc3)n2)nc(Nc2ccccc2)n1` [Compound C1, N^2-phenyl-6-[(5-phenyl-1H-1,2,4-triazol-3-ylthio)methyl]-1,3,5-triazine-2,4-diamine], the IC50 amounted to 2.02 µM.

Turning to `COc1ccccc1-c1nnc(SCc2ccccn2)[nH]1` [Compound C2, 2-((5-(2-methoxyphenyl)-4H-1,2,4-triazol-3-ylthio)methyl)pyridine], the IC50 came out at 3.79 µM.

In turn, `CCOC(=O)c1sc(NC(=O)CSc2nnc(-c3ccccc3OC)[nH]2)c(C#N)c1C` [Compound C3, ethyl 4-cyano-5-{2-[5-(2-methoxyphenyl)-4H-1,2,4-triazol-3-ylthio]acetamide}-3-methylthiophene-2-carboxylate] came in with an IC50 of 5.39 µM.

In turn, `O=C(CSc1nnc(-c2ccccc2Br)[nH]1)NC(=O)NCc1ccco1` [Compound C4, 2-[5-(2-bromophenyl)-4H-1,2,4-triazol-3-ylthio]-N-(furan-2-ylmethylcarbamoyl)acetamide] registered an IC50 of 2.54 µM.

`O=C(CSc1nnc(-c2ccccc2)[nH]1)NC(=O)NCc1ccco1` [Compound C5, N-(furan-2-ylmethylcarbamoyl)-2-(5-phenyl-4H-1,2,4-triazol-3-ylthio)acetamide] registered an IC50 of 1.57 µM.

In turn, `O=C1C2CC=CCC2C(=O)N1c1nnc(Cc2ccccc2)[nH]1` (stereo not drawn) [Compound E2] returned an IC50 of 0.33 µM.

`CCCSc1nnc(NC(C)=O)[nH]1` [Compound E3] showed an IC50 of 0.68 µM.

Compound `[H]/N=C(C)\C(C#N)=C(\O)CSc1nnc(-c2ccccc2Br)[nH]1` [Compound E4] showed an IC50 of 1.06 µM.

As to `COc1ccccc1-c1nnc(NC(C)=O)[nH]1` [Compound E5], the IC50 was 1.99 µM.

For `COc1cc(CSc2nnc[nH]2)c(OC)cc1CSc1nnc[nH]1` [Compound E6], half-maximal inhibition (IC50) required 1.99 µM.

For the compound `COc1cc(C(=O)Nc2cc(-c3ccccc3)n[nH]2)cc(OC)c1OC` [Compound E7], the midpoint of inhibition, the IC50, lay at 2.39 µM.

Regarding `Clc1ccccc1-c1n[nH]c(-c2ccccc2)n1` [Compound E8], the IC50 stood at 2.47 µM.

`COc1ccc(-c2nc3n(n2)C(=O)CC(c2ccco2)S3)cc1` (stereo not drawn) [Compound E9] returned an IC50 of 3.82 µM.

`CCOC(=O)C1C(=O)Nc2nc3ccccc3n2C1C(C)C` (stereo not drawn) [Compound E10] came in with an IC50 of 3.94 µM.

For `C=CCSc1nc(-c2ccc(OC)cc2)n[nH]1` [Compound E11], the IC50 was found to be 4.35 µM.

With `COc1ccc(OC)c(C(=O)CSc2nc3ccc[nH]c-3n2)c1` [Compound E12], 4.68 µM corresponded to half-maximal inhibition (IC50).

On to `Oc1nc2cc(Cl)ccc2n1-c1ccccc1` [Compound E13], for which 5.34 µM corresponded to half-maximal inhibition (IC50).

Regarding `Cn1ncc2c1ncn1c(-c3ccccc3Cl)nnc21` [Compound E14], half-maximal inhibition (IC50) required 5.83 µM.

`O=C(CSc1nc2ccc[nH]c-2n1)c1ccc(F)cc1` [Compound E15]: 6.26 µM corresponded to half-maximal inhibition (IC50).

As for `Cc1cccc(C)c1OCc1nnc2c3cnn(C)c3ncn12` [Compound E16], the IC50 was determined as 6.89 µM.

In turn, `Cc1ccc(-n2ccc3c2ncn2c(C)nnc32)cc1C` [Compound E17] returned an IC50 of 7.92 µM.

In turn, `CC(C)C1N=C2c3ccccc3N=C(SCC(=O)c3ccc(O)c(O)c3)N2C1=O` (stereo not drawn) [Compound E18] had an IC50 of 10.3 µM.

`Cc1ccsc1/C=c1\sc2ncnn2c1=O` [Compound E19] showed an IC50 of 11.3 µM.

In turn, `Cc1nc2c3cnn(-c4ccc(C)c(C)c4)c3ncn2n1` [Compound E20] gave a half-maximal inhibitory concentration (IC50) of 13 µM.

Compound `Cn1ncc2c1ncn1nc(CCc3ccccc3)nc21` [Compound E21] yielded a half-maximal inhibitory concentration (IC50) of 16 µM.

As for `CC1(C)Cc2c(sc3cc4n(c(=N)c23)CCCCC4)CO1` [Compound E22], the IC50 was determined as 9.5 µM.

`COc1ccc(C)cc1S(=O)(=O)Nc1cccnc1` [Compound F2] had a half-maximal inhibitory concentration (IC50) of 0.75 µM.

`CCOc1ccc(C)cc1S(=O)(=O)Nc1cccnc1` [Compound F3]: the IC50 amounted to 1.93 µM.

For the compound `COc1ccc(OC)c(S(=O)(=O)Nc2ccc(O)c(Sc3nc[nH]n3)c2)c1` [Compound F4], the IC50 turned out to be 8.45 µM.

As to `O=P(O)(O)c1ccccc1OCCOCCOc1ccccc1P(=O)(O)O` [Compound G1], inhibition was half-maximal at 1.66 µM (IC50).

As for `O=P(O)(O)c1ccccc1OCCCCCOc1ccccc1P(=O)(O)O` [Compound G2], the IC50 stood at 2.05 µM.

`O=C(CCCn1c(SCC(=O)c2ccc(O)c(O)c2)nc2ccccc2c1=O)NCC1CCCO1` (stereo not drawn) [Compound H1] displayed an IC50 of 4.66 µM.

As to `N#C/C(=C\c1ccc(O)c(O)c1)C(=O)NCCCc1ccccc1` [Compound H2], inhibition was half-maximal at 5.16 µM (IC50).

These data come from US8686003B2, “Tissue non-specific alkaline phosphatase inhibitors and uses thereof for treating vascular calcification” (Sanford-Burnham Medical Research Institute, priority 2007, dated 2014).
